The target of experiment [1] is Cannabinoid receptor 1 (Rattus norvegicus, UniProt P20272). Description: Displacement of [3H]CP-55940 from CB1 receptor in rat brain. It counts as tissue-based. A general note: In a radioligand displacement assay an active substance lowers the binding of a labelled ligand.
Experiment [2] concerns the target Cannabinoid receptor 2 (Homo sapiens, UniProt P34972). The experiment can be described thus: Displacement of [3H]CP-55940 from human cloned CB2 receptor.

Sequence of Cannabinoid receptor 1 (P20272 whole entry): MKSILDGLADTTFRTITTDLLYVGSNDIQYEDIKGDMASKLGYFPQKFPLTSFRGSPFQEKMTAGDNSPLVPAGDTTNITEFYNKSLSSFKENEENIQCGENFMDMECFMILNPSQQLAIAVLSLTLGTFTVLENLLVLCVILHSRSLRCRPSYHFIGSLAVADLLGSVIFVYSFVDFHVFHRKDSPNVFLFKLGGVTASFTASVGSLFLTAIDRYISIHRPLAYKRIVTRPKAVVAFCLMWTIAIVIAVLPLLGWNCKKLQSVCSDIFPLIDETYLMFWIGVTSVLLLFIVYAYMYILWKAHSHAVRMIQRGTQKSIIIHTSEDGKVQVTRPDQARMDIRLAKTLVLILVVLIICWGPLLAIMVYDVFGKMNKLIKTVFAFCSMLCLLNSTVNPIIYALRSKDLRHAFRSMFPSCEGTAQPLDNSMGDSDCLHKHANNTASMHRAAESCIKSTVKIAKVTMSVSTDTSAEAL
Sequence of Cannabinoid receptor 2 (P34972 whole entry): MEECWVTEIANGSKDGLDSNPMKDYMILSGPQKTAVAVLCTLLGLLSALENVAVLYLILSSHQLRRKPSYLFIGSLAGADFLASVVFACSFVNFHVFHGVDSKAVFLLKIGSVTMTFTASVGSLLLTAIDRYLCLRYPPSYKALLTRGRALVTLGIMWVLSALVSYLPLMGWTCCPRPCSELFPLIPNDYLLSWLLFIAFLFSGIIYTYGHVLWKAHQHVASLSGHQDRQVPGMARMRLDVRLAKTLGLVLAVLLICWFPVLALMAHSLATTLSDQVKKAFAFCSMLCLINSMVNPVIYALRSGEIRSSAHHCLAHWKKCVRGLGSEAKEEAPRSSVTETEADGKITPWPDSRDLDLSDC

With `CCCCCn1cc(C(=O)c2cccc3ccccc23)cc1-c1ccccc1Cl`, the values for the Ki in experiment [1] and in experiment [2] were 0.0079 µM and 0.0052 µM, respectively.

Regarding `CCCCCn1cc(C(=O)c2cccc3ccccc23)cc1-c1ccccc1C(F)(F)F`, the Ki – broadly, the equilibrium dissociation constant of an inhibitor or competing ligand from its target – in experiment [1] was determined as 0.077 µM; in experiment [2] it was 0.0082 µM.

With `CCCCCn1cc(C(=O)c2cccc3ccccc23)cc1-c1ccccc1C`, the results for the Ki in experiment [1] and in experiment [2] were 0.0056 µM and 0.004 µM, respectively.

On to `CCCCCn1cc(C(=O)c2cccc3ccccc23)cc1-c1ccc(CCCC)cc1`, for which the values for the Ki in experiment [1] and in experiment [2] were 0.042 µM and 0.064 µM, respectively.

In the case of `CCCCCn1cc(C(=O)c2cccc3ccccc23)cc1-c1cccc2ccccc12`, the Ki stood at 0.041 µM in experiment [1] and 0.049 µM in experiment [2].

Regarding `CCCCCn1cc(C(=O)c2cccc3ccccc23)cc1-c1ccc(Cl)cc1`, the Ki stood at 0.276 µM in experiment [1] and 0.025 µM in experiment [2].

`CCCCCn1cc(C(=O)c2cccc3ccccc23)cc1-c1cccc(C(F)(F)F)c1`: the Ki in experiment [1] worked out at 0.245 µM; in experiment [2], 0.071 µM.

`CCCn1cc(C(=O)c2cccc3ccccc23)cc1-c1ccccc1`: the Ki turned out to be 0.404 µM in experiment [1] and 0.104 µM in experiment [2].

Consider `CCCCCn1cc(C(=O)c2cccc3ccccc23)cc1-c1cccc(OC)c1`, for which the Ki in experiment [1] turned out to be 0.053 µM; in experiment [2], 0.023 µM.

Take `CCCCCn1cc(C(=O)c2cccc3ccccc23)cc1-c1cccc(F)c1`: the Ki was 0.016 µM in experiment [1] and 0.0091 µM in experiment [2].

On to `CCCCn1cc(C(=O)c2cccc3ccccc23)cc1-c1ccccc1`, for which the results for the Ki in experiment [1] and in experiment [2] were 0.06 µM and 0.015 µM, respectively.

For `CCCCCn1cc(C(=O)c2cccc3ccccc23)cc1-c1ccccc1`, the Ki turned out to be 0.014 µM in experiment [1] and 0.0064 µM in experiment [2].

Turning to `CCCCCn1cc(C(=O)c2cccc3ccccc23)cc1-c1ccc2ccccc2c1`, the values for the Ki in experiment [1] and in experiment [2] were 0.333 µM and 0.169 µM, respectively.

Regarding `CCCCCn1cc(C(=O)c2cccc3ccccc23)cc1-c1ccccc1OC`, the Ki is 0.029 µM in experiment [1] and 0.02 µM in experiment [2].

Regarding `CCCCCn1cc(C(=O)c2cccc3ccccc23)cc1-c1cccnc1`, the Ki in experiment [1] was determined as 0.191 µM; in experiment [2] it was 0.024 µM.

`CCCCCn1cc(C(=O)c2cccc3ccccc23)cc1-c1ccc(C)cc1`: the Ki was 0.13 µM in experiment [1] and 0.018 µM in experiment [2].

Turning to `CCCCCn1cc(C(=O)c2cccc3ccccc23)cc1-c1ccccc1CC`, the Ki worked out at 0.017 µM in experiment [1] and 0.0034 µM in experiment [2].

Turning to `CCCCCn1cc(C(=O)c2cccc3ccccc23)cc1-c1cccc(Cl)c1`, the figures for the inhibition constant Ki in experiment [1] and in experiment [2] were 0.07 µM and 0.016 µM, respectively.

As for `CCCCCn1cc(C(=O)c2cccc3ccccc23)cc1-c1ccc(C(F)(F)F)cc1`, the values for the Ki in experiment [1] and in experiment [2] were 0.218 µM and 0.053 µM, respectively.

In the case of `CCCCCCCn1cc(C(=O)c2cccc3ccccc23)cc1-c1ccccc1`, the Ki worked out at 0.021 µM in experiment [1] and 0.062 µM in experiment [2].

`CCCCCn1cc(C(=O)c2cccc3ccccc23)cc1-c1ccc(CC)cc1`: the Ki amounted to 0.034 µM in experiment [1] and 0.029 µM in experiment [2].

`CCCCCn1cc(C(=O)c2cccc3ccccc23)cc1-c1cccc(C)c1`: the Ki in experiment [1] stood at 0.067 µM; in experiment [2], 0.039 µM.

`CCCCCn1cc(C(=O)c2cccc3ccccc23)cc1-c1ccc(F)cc1`: the values for the Ki in experiment [1] and in experiment [2] were 0.041 µM and 0.033 µM, respectively.

As to `CCCCCCn1cc(C(=O)c2cccc3ccccc23)cc1-c1ccccc1`, the Ki in experiment [1] was 0.011 µM; in experiment [2] it was 0.0071 µM.

Consider `CCCCCn1cc(C(=O)c2cccc3ccccc23)cc1-c1ccc(OC)cc1`, for which the results for the Ki in experiment [1] and in experiment [2] were 0.285 µM and 0.041 µM, respectively.

Turning to `CCCCCn1cc(C(=O)c2cccc3ccccc23)cc1-c1ccccc1CCCC`, the Ki in experiment [1] turned out to be 0.06 µM; in experiment [2] it was 0.069 µM.

On to `CCCCCn1cc(C(=O)c2cccc3ccccc23)cc1-c1cccc([N+](=O)[O-])c1`, for which the Ki was 0.1 µM in experiment [1] and 0.041 µM in experiment [2].

As to `CCCCCn1cc(C(=O)c2cccc3ccccc23)cc1-c1ccccc1F`, the Ki in experiment [1] was 0.0077 µM; in experiment [2] it was 0.0033 µM.

For the origin of these results see ChEMBL document CHEMBL1137285, “1-Alkyl-2-aryl-4-(1-naphthoyl)pyrroles: new high affinity ligands for the cannabinoid CB1 and CB2 receptors” (Bioorg Med Chem Lett, 2006).
